From US4434290A, “Pyrido (4,3-B) carbazoles substituted in the 1 position by a polyamine chain” (priority 1978, dated 1984)

Experiments:
[1] = test system: cells of viro-induced leukemia of Friend; test: In vitro cytotoxic study on cells of the Friend leukemia of the mouse (Table XV); type: cell-based; conditions: for IC50 / IC100: Mus musculus, 24 h; for IC50: read-out: LD 50 (50% lethal dose); for IC100: read-out: LD 100 (100% lethal dose); for LD 50 HUM / LD 50 product: ratio to reference HUM
Method: "In vitro" cytotoxic study of the compounds of the invention on the cells of viro-induced leukemia of Friend in the mouse [J. Exp. Med. 1957, 105, p. 307-318].
The cells were grown in suspension in the RPMI 1640 medium [catalogue of GIBCO Bio-Cult-Ltd, Washington Road Sandyford Industrial Estate Paisley PA3 4EP Renfrewshire Scotland] supplement with 20% of embryonary calf serum, with penicillin and with streptopycin. The duplication time of the culture was about 11 hours. The growth factor is equal to 1 or very close to 1 (all the cells multiplying).
The cultures were seeded at times t=0 at the concentration of 2×10^5 cells per ml in Falcon dishes containing 4 ml of medium. 24 hours later, the product to be tested (in solution, in acetic water) was added, at the moment when the cells were in the exponential growth phase. 24 hours after the addition of the product, the cells were counted and the percentage of living cells determined by an exclusion test with trypan blue.

leukemia L1210 = test: Leukemia L1210 in vivo, measurement of survival time (Table XII); design: species or system B6 D2 Fl (C 57 Bl/6×DBA/2) Fl mice; MST: unit not given here; conditions: 10^5 cells, i.p.
Method: The following pharmacological trials relate to the effects of the compounds of the invention on leukemia L1210 in vivo.
G. Proc. Nat. Acad. Sci. 1972, 69, 1042-1047 and Schepartz S., Screening 1971, Cancer Chemother. Part 3; Vol. 2, p. 3].
The properties were determined by the curative action inoculated experimental leukemia L1210. This leukemia was maintained on B6 D2 Fl (C 57 Bl/6×DBA/2) Fl mice in the proportion of 6 or 10 mice per experimental batch. The compounds to be tested were injected by the intraperitoneal route one or several days after inoculation of the cells (1 injection only). […] The death interval was determined, the first figure of the Table indicating the date of the first mouse death and the second the date of the last mouse death. The mean survival time was also measured (MST). A characteristic value is the percentage of increased life span (ILS %). This value (Cancer. Res. 1971, 31, 1883-1887) is the ratio: [formula] where S^t =survival of treated animals and
S^c =survival of control animals.

L1210 cells = test: In vitro cytotoxic study on leukemia L1210 cells, complete inhibition of growth (Table XVI); type: cell-based; conditions: for IC (100 (complete growth inhibition, minimal)): Mus musculus, read-out: Minimal dose leading to a complete inhibition of the growth
Method: (§1) Cytotoxic "in vitro" study on hamster cells on leukemia L1210 cells of the serie.
(§2) After 5 hours, the cells were attached to a plastic support and the products to be tested whose solutions had been formed in water or in DMSO (dimethylsulphoxide) if the product was little soluble in water, was added. In the latter case a control was carried out with the same final concentration of DMSO in the culture medium.
(§3) The state of the cells was examined 24, 48 and 72 hours later.
In the case of the L1210 cells, the tests were carried out in a medium gelled with agarose, the L1210 cells growing in suspension.

C13/8 cells = test: In vitro cytotoxic study on hamster cells, complete inhibition of growth, C13/8 (Table XVI); type: cell-based; conditions: for IC (100 (complete growth inhibition, minimal)): Mesocricetus auratus, read-out: Minimal dose leading to a complete inhibition of the growth
From the text: as §1
In particular, the line BHK 21 of hamster cells and a clone derived from this line were used, converted by the virus of the hamster sarcoma (clone HS5).
After detachment by trypsin, the cells were placed under culture in plastic Petri dishes of 35 mm diameter at the concentration of 2.10^5 cells/dish, in a "Eagle" culture medium supplemented with "Bactotryptophosphate Broth Difco" and with 10% of calf serum [M. STOKER and I. MAC-PHERSON Virology, 14, 1961, 359].
as §2, §3

HS5 cells = test: In vitro cytotoxic study on hamster cells converted by the virus of the hamster sarcoma, clone HS5 (Table XVI); type: cell-based; conditions: for IC (100 (complete growth inhibition, minimal)): Mesocricetus auratus, read-out: Minimal dose leading to a complete inhibition of the growth
Method: Cytotoxic "in vitro" study on hamster cells on leukemia L1210 cells of the serie. In particular, the line BHK 21 of hamster cells and a clone derived from this line were used, converted by the virus of the hamster sarcoma (clone HS5). […] STOKER and […] Virology, 14, 1961, 359]. After 5 hours, the cells were attached to a plastic support and the products to be tested whose solutions had been formed in water or in DMSO (dimethylsulphoxide) if the product was little soluble in water, was added. In the latter case a control was carried out with the same final concentration of DMSO in the culture medium. The state of the cells was examined 24, 48 and 72 hours later.

cell cultures = test: Cytotoxicity in pharmacological tests (general statements); type: cell-based
[2] = L1210, medium gelled with agarose

| SMILES | IC50 [1] [nM] | IC100 [1] [µM] | LD 50 HUM / LD 50 product [1] | IC (100 (complete growth inhibition, minimal)) (C13/8 cells) [µM] | IC (100 (complete growth inhibition, minimal)) (HS5 cells) [µM] | further results |
| --- | --- | --- | --- | --- | --- | --- |
| Cc1c2ccnc(NCCCN)c2cc2c1[nH]c1ccc(OCc3ccccc3)cc12 [Compound 23] | 300 | 0.9 | 1 |  |  |  |
| COc1ccc2[nH]c3c(C)c4ccnc(NCCCN)c4c(C)c3c2c1 [Compound 25] | 120 | 0.3 | 3 |  |  | Death interval (mice) (leukemia L1210; 10 mg/kg, day +4): 12-13; ILS % (leukemia L1210; 10 mg/kg, day +4): 21.1%; MST (leukemia L1210; 10 mg/kg, day +4): 12.6; Death interval (mice) (leukemia L1210; 20 mg/kg, day +4): 8-12; MST (leukemia L1210; 20 mg/kg, day +4): 9.6; activity compared with HUM / known derivatives [1]: more active than the derivatives already known; IC (100 (complete growth inhibition, minimal)) (L1210 cells; [2]): 0.9 µM |
| CCN(CC)CCCNc1nccc2c(C)c3[nH]c4ccncc4c3cc12 [BD 40, reference compound] |  |  |  |  |  | Minimal dose leading to a complete inhibition of the growth (C13/8 cells): 0.25 μ M; Minimal dose leading to a complete inhibition of the growth (HS5 cells): 0.25 μ M; Minimal dose leading to a complete inhibition of the growth (L1210 cells; [2]): 0.2 μ M |
| CCN(CC)CCCNc1nccc2c(C)c3[nH]c4ccc(OCc5ccccc5)cc4c3cc12 [Compound 24] | 3000 | 10 | 0.1 |  |  | IC (100 (complete growth inhibition, minimal)) (L1210 cells; [2]): 0.4 µM; activity compared with the reference BD40 (L1210 cells; summary of Table XVI): almost as active as the reference dipyrido-indole (BD40) |
| COc1ccc2[nH]c3c(C)c4ccnc(N5CCCCC5)c4cc3c2c1 [Compound 21] | 35000 | 100 | 1.1 | > 5 | > 5 | cytotoxic activity (cell cultures): not cytotoxic |
| CCN(CC)CCCNc1nccc2c(C)c3[nH]c4ccc(O)cc4c3cc12 [Compound 29] | 17 | 0.04 | 18 |  |  | Death interval (mice) (leukemia L1210; 10 mg/kg, day +4): 15-17; ILS % (leukemia L1210; 10 mg/kg, day +4): 55.8%; MST (leukemia L1210; 10 mg/kg, day +4): 16.2; Death interval (mice) (leukemia L1210; 20 mg/kg, day +4): 10-15; ILS % (leukemia L1210; 20 mg/kg, day +4): 19.2%; MST (leukemia L1210; 20 mg/kg, day +4): 12.4; activity compared with HUM / known derivatives [1]: more active than the derivatives already known |
| CCN(CC)CCCNc1nccc2c(C)c3[nH]c4ccc(OC)cc4c3cc12 [Compound 18] | 500 | 1.5 | 0.6 | 5 | 5 | Death interval (mice) (leukemia L1210; 20 mg/kg, day +3): 13-19; ILS % (leukemia L1210; 20 mg/kg, day +3): 38.8%; MST (leukemia L1210; 20 mg/kg, day +3): 16.1 |
| COc1ccc2[nH]c3c(C)c4ccnc(NCCCCCCN)c4cc3c2c1 [Compound 15] | 800 | 2 | 0.4 | 2 | 2 |  |
| COc1ccc2[nH]c3c(C)c4ccnc(NCCCCCN)c4cc3c2c1 [Compound 14] | 500 | 1.5 | 0.6 | 2 | 2 |  |
| COc1ccc2[nH]c3c(C)c4ccnc(NCCCN(C)C)c4c(C)c3c2c1 [Compound 26] | 400 | 1 | 0.75 |  |  | Death interval (mice) (leukemia L1210; 10 mg/kg, day +4): 12-16; ILS % (leukemia L1210; 10 mg/kg, day +4): 38.5%; MST (leukemia L1210; 10 mg/kg, day +4): 14.4; Death interval (mice) (leukemia L1210; 20 mg/kg, day +4): 16-19; ILS % (leukemia L1210; 20 mg/kg, day +4): 67.3%; MST (leukemia L1210; 20 mg/kg, day +4): 17.4 |
| COc1ccc2[nH]c3c(C)c4ccnc(NCCN)c4cc3c2c1 [Compound 11] | 100 | 0.25 | 3 | 1 | 1 | activity compared with HUM / known derivatives [1]: more active than the derivatives already known |
| COc1ccc2[nH]c3c(C)c4ccnc(NCCCN(C)C)c4cc3c2c1 [Compound 17] | 1500 | 3 | 0.2 | 1 | 2 |  |
| COc1ccc2[nH]c3c(C)c4ccnc(NCCN(C)C)c4cc3c2c1 [Compound 16] | 800 | 3 | 0.4 | 1 | 2 |  |
| COc1ccc2[nH]c3c(C)c4ccnc(NCCCN)c4cc3c2c1 [Compound 12] | 250 | 0.7 | 1.5 | 2 | 2 |  |
| COc1ccc2[nH]c3c(C)c4ccnc(NCCCCN)c4cc3c2c1 [Compound 13] | 7000 | 15 | 0.04 | 2 | 2 |  |
| CCN(CC)CCCC(C)Nc1nccc2c(C)c3[nH]c4ccc(OC)cc4c3cc12 (centres unmarked) [Compound 19] | 1300 | 3 | 0.2 |  |  | Death interval (mice) (leukemia L1210; 10 mg/kg, day +4): 11-16; ILS % (leukemia L1210; 10 mg/kg, day +4): 25%; MST (leukemia L1210; 10 mg/kg, day +4): 13; Death interval (mice) (leukemia L1210; 20 mg/kg, day +4): 11-16; ILS % (leukemia L1210; 20 mg/kg, day +4): 19.2%; MST (leukemia L1210; 20 mg/kg, day +4): 12.4 |
| Cc1c2cc[n+](C)cc2c(C)c2c1[nH]c1ccc(O)cc12 [HUM, 2-methyl-9-hydroxy ellipticinium acetate, reference compound] | 300 | 0.8 |  |  |  |  |
